Reference: patent US20180273528A1 (LES LABORATOIRES SERVIER, priority 2015, published 2018)

Columns and labels:
[1] = molecular target: T1, His-TEV-DYRK1A Kinase domain (aa127-485) (Homo sapiens, UniProt Q13627); assay: Kinase ADP assay (ADP Hunter), DYRK1A kinase domain; type: biochemical; settings: 20 μM ATP
T1 construct: His-TEV-DYRK1A Kinase domain (aa127-485); His tag (N); TEV protease cleavage site (N)
In short: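 Readout is ADP Hunter fluorescence at 590 nm, developed 20 min at 30 °C after the kinase step. That step ran 10 min at 30 °C in Hepes pH 7.4 (10 mM MgCl2, 1 mM EGTA, 0.02% Tween20) containing 20 μM ATP, 40 μM peptide and 20 nM enzyme plus compound.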

DYRK1B = molecular target: T2, DYRK1B (Homo sapiens, UniProt Q9Y463); assay: Kinase TR-FRET assay, DYRK1B; type: biochemical; settings: full-length human kinase, 10 μM ATP
T2 construct: full-length human kinases from Carna Biosciences; purchased Carna Biosciences 04-131
Description: (§1) Inhibition of the enzymatic activity of human kinases was evaluated in a Time-Resolved Fluorescence Resonance Energy Transfer (TR-FRET) assay in 384-well reaction plates. […] Test compounds of the invention were added in reaction buffer at a range of concentrations from 0.1 nM to 30 μM. Following addition of EDTA (Sigma E7889, 10 mM) to stop the reaction, Europium-labelled mouse monoclonal antibody recognizing phospho-Thr232 in MBP (Perkin Elmer TRF0201, 1 nM) was added.

DYRK1A [2] = molecular target: T3, DYRK1A (Homo sapiens, UniProt Q13627); assay: Kinase TR-FRET assay, DYRK1A; type: biochemical; set-up: full-length, wild-type human DYRK1A (NM_001396) with an HA tag; expressed in transfected cells; host or cells: human U2-OS osteosarcoma cells, transient transfection of a pcDNA3.1 plasmid; settings: full-length human kinase, 10 μM ATP
Description: as §1

DYRK1A [3] = molecular target: T3, DYRK1A; assay: Cellular DYRK1 autophosphorylation assay in U2-OS cells; type: cell-based; set-up: full-length, wild-type human DYRK1A (NM_001396) with an HA tag; expressed in transfected cells; host or cells: human U2-OS osteosarcoma cells, transient transfection of a pcDNA3.1 plasmid; settings: U2-OS cells transfected with HA-tagged human DYRK1A, 5 hours exposure; read-out: IC50 (μM) P-Ser520-Dyrk1A -Cell assay
Description: On day 2, cells were exposed to a range of concentrations of the test compounds of the invention for 5 hours. […] The relative levels of phospho-Ser520-DYRK1A were assayed using either western blotting or the Mesoscale ELISA platform. For analysis by western blot, lysates were diluted into Laemmli sample buffer (Bio-Rad) containing 5% v/v β-mercaptoethanol, heated for 5 min at 95° C., and resolved on Tris-glycine gels or NuPage Bis-Tris gels (Novex; Invitrogen). Biotinylated molecular weight standards (Cell Signaling Technology) were included in all gels. Proteins were transferred to nitrocellulose membranes (Hybond, ECL; Amersham), which were blocked in Tris-buffered saline/0.1% tween 20 (TBST) containing 5% milk, and probed at 4° C. overnight with anti-phospho-Ser520-DYRK1A antibody (Eurogentec SE6974-75; 0.23 μg/ml in 5% BSA) or anti DYRK1A antibody (Abnova H00001859; 0.5 μg/ml in 5% milk). Peroxidase-conjugated secondary antibodies were diluted into 5% milk and applied to membranes for 1 h at 20° C. Chemiluminescence detection was performed using the ECL plus western blotting detection kit (Amersham) and was recorded on ECL plus hyperfilm (Amersham). Blots were scanned using the Bio-Rad GS-800 calibrated densitometer and quantitative analysis of western blots was performed using TotalLab software (Amersham). IC50 values for inhibition of phospho-Ser520-DYRK1A were calculated from dose-response curves plotting the ratio between phospho-Ser520-DYRK1A and total DYRK1A signals at each concentration. […] Anti-phospho-Ser520-DYRK1A antibody (Eurogentec SE6974-75; […]) and anti DYRK1A antibody (Abnova H00001859; 3 μg/ml) was then added for 1 hour at RT, followed by addition of Sulfa-TAG anti-rabbit detection antibody (ref MSD R32AB; 1 μg/ml) and Sulfa-TAG anti-mouse detection antibody (ref MSD R32-AC-1; 1 μg/ml). After a further 1 hour, Read Buffer was added and plates were read on the Sector Imager 2400 (Mesoscale). IC50 values for inhibition of phospho-Ser520-DYRK1A were calculated from dose-response curves.

T2 sequence (Q9Y463 whole entry): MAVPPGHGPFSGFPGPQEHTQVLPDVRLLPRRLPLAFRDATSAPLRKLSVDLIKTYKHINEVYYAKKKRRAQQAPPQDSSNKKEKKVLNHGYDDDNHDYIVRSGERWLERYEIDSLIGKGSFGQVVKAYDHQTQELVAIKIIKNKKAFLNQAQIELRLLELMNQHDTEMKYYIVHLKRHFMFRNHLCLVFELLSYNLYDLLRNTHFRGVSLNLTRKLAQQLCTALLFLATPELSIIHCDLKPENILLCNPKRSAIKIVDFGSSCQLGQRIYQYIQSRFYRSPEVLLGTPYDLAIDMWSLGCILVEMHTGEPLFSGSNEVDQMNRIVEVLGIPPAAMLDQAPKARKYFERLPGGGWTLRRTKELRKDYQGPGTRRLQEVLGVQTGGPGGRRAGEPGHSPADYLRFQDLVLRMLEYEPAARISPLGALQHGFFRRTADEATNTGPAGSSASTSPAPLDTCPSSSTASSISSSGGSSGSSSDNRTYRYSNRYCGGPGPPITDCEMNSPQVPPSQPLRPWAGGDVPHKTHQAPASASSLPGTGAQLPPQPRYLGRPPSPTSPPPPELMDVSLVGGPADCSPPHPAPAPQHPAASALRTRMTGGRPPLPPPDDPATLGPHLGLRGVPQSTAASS

| SMILES | IC50 [1] [µM] | IC50 (DYRK1B) [µM] | IC50 (DYRK1A [2]) [µM] | IC50 (DYRK1A [3]) [µM] |
| --- | --- | --- | --- | --- |
| Cc1nc2ccc(-c3cc(N)nc(N)c3)nc2n1C1Cc2ccccc2C1 [Example 12, 4-[3-(2,3-dihydro-1H-inden-2-yl)-2-methyl-3H-imidazo[4,5-b]pyridin-5-yl]pyridine-2,6-diamine] | 0.009 | 0.003 | 0.002 | 0.07 |
| Cc1nc2ccc(-c3cc(N)nc(N)c3)nc2n1CCC1CC1 [Example 17, 4-[3-(2-cyclopropylethyl)-2-methyl-3H-imidazo[4,5-b]pyridin-5-yl]pyridine-2,6-diamine] | 0.011 | – | 0.006 | 0.063 |
| CCC(CC)Cn1c(C)nc2ccc(-c3cc(N)nc(N)c3)nc21 [Example 18, 4-[3-(2-ethylbutyl)-2-methyl-3H-imidazo[4,5-b]pyridin-5-yl]pyridine-2,6-diamine] | 0.013 | – | 0.002 | 0.108 |
| COc1cc(Cl)ccc1Cn1c(C)nc2ccc(-c3cc(N)nc(N)c3)nc21 [Example 39, 4-[3-(4-chloro-2-methoxybenzyl)-2-methyl-3H-imidazo[4,5-b]pyridin-5-yl]pyridine-2,6-diamine] | 0.045 | – | 0.245 | – |
| Cc1nc2ccc(-c3cc(N)nc(N)c3)nc2n1Cc1ccc(C#N)cc1 [Example 40, 4-{[5-(2,6-diaminopyridin-4-yl)-2-methyl-3H-imidazo[4,5-b]pyridin-3-yl]methyl}benzonitrile] | 0.187 | – | 0.154 | – |
| Cc1nc2ccc(-c3cc(N)nc(N)c3)nc2n1Cc1ccc(OC(F)F)cc1 [Example 43, 4-{3-[4-(difluoromethoxy)benzyl]-2-methyl-3H-imidazo[4,5-b]pyridin-5-yl}pyridine-2,6-diamine] | 0.109 | – | 0.116 | – |
| CSCCCn1c(C)nc2ccc(-c3cc(N)nc(N)c3)nc21 [Example 44, 4-{2-methyl-3-[3-(methylsulfanyl)propyl]-3H-imidazo[4,5-b]pyridin-5-yl}pyridine-2,6-diamine] | 0.011 | – | 0.019 | 0.023 |
| Cc1nn(C)c(C)c1Cn1c(C)nc2ccc(-c3cc(N)nc(N)c3)nc21 [Example 45, 4-{2-methyl-3-[(3,5-trimethyl-1H-pyrazol-4-yl)methyl]-3H-imidazo[4,5-b]pyridin-5-yl}pyridine-2,6-diamine] | 0.055 | – | 0.177 | – |
| Cc1nc2ccc(-c3cc(N)nc(N)c3)nc2n1Cc1cc(F)ccc1F [Example 46, 4-[3-(2,5-difluorobenzyl)-2-methyl-3H-imidazo[4,5-b]pyridin-5-yl]pyridine-2,6-diamine] | 0.035 | – | 0.056 | – |
| Cc1nc2ccc(-c3cc(N)nc(N)c3)nc2n1Cc1cccc(Cl)c1 [Example 48, 4-[3-(3-chlorobenzyl)-2-methyl-3H-imidazo[4,5-b]pyridin-5-yl]pyridine-2,6-diamine] | 0.056 | – | 0.116 | – |
| Cc1nc2ccc(-c3cc(N)nc(N)c3)nc2n1CCC(C)(C)C [Example 52, 4-[3-(3,3-dimethylbutyl)-2-methyl-3H-imidazo[4,5-b]pyridin-5-yl]pyridine-2,6-diamine] | 0.006 | 0.008 | 0.006 | – |
| Cc1nc2ccc(-c3cc(N)nc(N)c3)nc2n1C1CCCCC1 [Example 54, 4-(3-cyclohexyl-2-methyl-3H-imidazo[4,5-b]pyridin-5-yl)pyridine-2,6-diamine] | 0.006 | 0.003 | 0.003 | 0.023 |
| Cc1nc2ccc(-c3cc(N)nc(N)c3)nc2n1C(C)(C)c1ccccc1 [Example 60, 4-[2-methyl-3-(2-phenylpropan-2-yl)-3H-imidazo[4,5-b]pyridin-5-yl]pyridine-2,6-diamine] | 0.51 | – | 0.149 | – |
| Cc1nc2ccc(-c3cc(N)nc(N)c3)nc2n1C1CCCc2ccccc21 (centres unmarked) [Example 62, 4-[2-methyl-3-(1,2,3,4-tetrahydronaphthalen-1-yl)-3H-imidazo[4,5-b]pyridin-5-yl]pyridine-2,6-diamine] | 0.781 | – | 0.166 | – |
| CCC(c1ccccc1)n1c(C)nc2ccc(-c3cc(N)nc(N)c3)nc21 (centres unmarked) [Example 67, 4-[2-methyl-3-(1-phenylpropyl)-3H-imidazo[4,5-b]pyridin-5-yl]pyridine-2,6-diamine] | 0.903 | – | 0.104 | – |
| COc1ccccc1CCCn1c(C)nc2ccc(-c3cc(N)nc(N)c3)nc21 [Example 69, 4-{3-[3-(2-methoxyphenyl)propyl]-2-methyl-3H-imidazo[4,5-b]pyridin-5-yl}pyridine-2,6-diamine] | 0.007 | – | 0.002 | – |
| Cc1nc2ccc(-c3cc(N)nc(N)c3)nc2n1C1CC2CCC1C2 (centres unmarked) [Example 155, 4-[3-(bicyclo[2.2.1]hept-2-yl)-2-methyl-3H-imidazo[4,5-b]pyridin-5-yl]pyridine-2,6-diamine] | 0.005 | – | 0.012 | – |
| CCc1nc2ccc(-c3cc(N)nc(N)c3)nc2n1C1Cc2ccccc2C1 [Example 158, 4-[3-(2,3-dihydro-1H-inden-2-yl)-2-ethyl-3H-imidazo[4,5-b]pyridin-5-yl]pyridine-2,6-diamine] | 0.014 | 0.016 | 0.008 | – |
| Cn1c(C(F)F)nc2ccc(-c3cc(N)nc(N)c3)nc21 [Example 228, 4-[2-(difluoromethyl)-3-methyl-3H-imidazo[4,5-b]pyridin-5-yl]pyridine-2,6-diamine] | 0.01 | 0.012 | 0.004 | – |
| Cn1c(C(F)(F)F)nc2ccc(-c3cc(N)nc(N)c3)nc21 [Example 229, 4-[3-methyl-2-(trifluoromethyl)-3H-imidazo[4,5-b]pyridin-5-yl]pyridine-2,6-diamine] | 0.081 | – | 0.061 | – |
| CCCCn1c(C)nc2ccc(-c3cc(N)nc(NC(=O)COc4ccccc4)c3)nc21 [Example 230, N-[6-amino-4-(3-butyl-2-methyl-3H-imidazo[4,5-b]pyridin-5-yl)pyridin-2-yl]-2-phenoxyacetamide] | 0.928 | – | 0.221 | – |
| CCCCn1c(C)nc2ccc(-c3cc(N)nc(NC(=O)c4ccccc4Cl)c3)nc21 [Example 233, N-[6-amino-4-(3-butyl-2-methyl-3H-imidazo[4,5-b]pyridin-5-yl)pyridin-2-yl]-2-chlorobenzamide] | 0.303 | – | 0.224 | – |
| CCCCn1c(C)nc2ccc(-c3cc(N)nc(NC(=O)C4CCCCC4)c3)nc21 [Example 234, N-[6-amino-4-(3-butyl-2-methyl-3H-imidazo[4,5-b]pyridin-5-yl)pyridin-2-yl]cyclohexanecarboxamide] | 0.236 | – | 0.09 | – |
| CCCCn1c(C)nc2ccc(-c3ccnc(N)c3)nc21 [Example 236, 4-(3-butyl-2-methyl-3H-imidazo[4,5-b]pyridin-5-yl)pyridin-2-amine] | 0.023 | 0.018 | 0.013 | – |
| Cc1nc2ccc(-c3ccnc(N)c3)nc2n1CC1CC1 [Example 238, 4-[3-(cyclopropylmethyl)-2-methyl-3H-imidazo[4,5-b]pyridin-5-yl]pyridin-2-amine] | 0.05 | 0.02 | 0.009 | – |
